Source: patent US11529323B2 (priority 2017, dated 2022)

Tests used:
[1] = test system: C-26 colon adenocarcinoma cachexia model; assay: Confirmatory AR-42/GTx-024 combination study (Study 2), C-26 model; type: in vivo, mouse
Method: (§1) These studies were performed as previously described (Tseng Y C, et al. J Natl Cancer Inst. 2015 107(12):djv274) with modifications. Tumors were established in the right flank by subcutaneous injection of C-26 cells (0.5×10^6 cells in 0.1 mL). […] TFM-4AS-1 (a potent experimental SARM), dihydrotestosterone (DHT) and vehicles were administered by subcutaneous injection.
This confirmatory study was performed exactly as Study 1 with expanded animal numbers. Tumor-free control groups were maintained at 6 animals each, whereas 10 animals were included in each of the tumor-bearing groups. […] Grip strength was measured on study days 0 (baseline) and 16. Due to rapid model progression, this study was terminated after only 12 days of treatment.
Forelimb grip strength was measured using Bio-GS3 Grip Strength Test Meter (Forceleader DBA Bioseb, Pinellas Park, Fla.). Each mouse was held by the base of its tail and lowered over the apparatus until its forepaws grasped the metal pull bar. The mouse was then gently pulled horizontally in a straight line away from the grip strength meter until the mouse released the bar. The force applied to the bar at the moment of release was recorded as the peak force. Five measurements were taken from each mouse, the average of which was designated as the mouse's grip strength.

C-26 tumor-bearing mice = conditions: AR-42 50 mg/kg, Tseng et al. 2015, cited from earlier work
[2] = oral gavage every other day; cited from earlier work
[3] = test system: C-26 colon adenocarcinoma cachexia model; assay: AR-42 dose-response study in the C-26 cachexia model; type: in vivo, mouse
Method: as §1
Male CD2F1 mice were stratified by body weight and then randomly assigned into 5 groups of 6 animals each. C-26 tumors were established in four of the groups, while those in the fifth group, serving as tumor-free controls, were injected with sterile saline. Six days later, animals with palpable tumors were treated with AR-42 once daily at 10 (n=5) and 20 mg/kg (n=6), and every other day at 50 mg/kg (n=5), or vehicle control (n=4) for 13 days. Upon sacrifice on study day 18, when the majority of tumor-bearing control mice met euthanasia criteria, the left gastrocnemius muscle was excised and flash frozen in liquid nitrogen and stored at −80° C. for subsequent analyses. Carcass weights were corrected for tumor weight by assuming a tumor density equivalent to water (1 g/cm^3).

CC(C)[C@H](C(=O)Nc1ccc(C(=O)NO)cc1)c1ccccc1 [AR-42, (S)—N-hydroxy-4-(3-methyl-2-phenylbutanamido)benzamide]
spleen mass ([1]; Study 1 and 2, C-26 tumor-bearing, normalized to tumor-corrected terminal body weight): either unchanged or slightly increased
forelimb grip strength ([1]; Study 2, day 16, C-26 tumor-bearing): improved grip strength over vehicle-treated tumor-bearing controls
adipose or heart mass ([1]; Study 2, AR-42 10 mg/kg): had no impact on adipose or heart mass
effect on gastrocnemius and quadriceps mass ([1]; Study 2, C-26 tumor-bearing, versus vehicle-treated tumor-bearing controls): significantly spared gastrocnemius and quadriceps mass
effect on adipose (C-26 tumor-bearing mice): adipose-sparing effect
serum IL-6 levels and gastrocnemius IL-6 receptor mRNA abundance (C-26 tumor-bearing mice; tumor-bearing mice): reduced serum IL-6 levels, as well as gastrocnemius IL-6 receptor mRNA abundance
maximally tolerated dose in mice [2]: 50 mg/kg
lowest efficacious dose ([3]; daily oral, C-26 model): 10 mg/kg
tumor-corrected body weight ([3]; thirteen daily oral doses of 20 or 10 mg/kg, similar to six 50 mg/kg doses q2d, C-26 tumor-bearing mice, Day 18): reversed C-26 tumor-mediated reductions in tumor-corrected body weight
